From a melting point compilation (Tetko et al.)

| SMILES | melting point [°C] |
| --- | --- |
| CN(C)C(=O)c1ccc(NC(=O)CCl)cc1 | 177 to 179 |
| O=C(CCl)N(c1ccccc1)C1CCS(=O)(=O)C1 (centres undefined) | 208 to 210 |
| Cc1cc(NC(=O)CCl)n(C)n1 | 115 to 117 |
| O=Cc1ccc(OCc2cccc(F)c2)cc1 | 45 to 47 |
| O=C(O)Cc1cc(Cl)c2c(c1)OCCCO2 | 166 to 168 |
| CC1CC(=O)c2c(O)ccc(Cl)c21 (centres undefined) | 55 to 57 |
| COc1ccc(NS(=O)(=O)c2ccc(NN)c([N+](=O)[O-])c2)cc1 | 204 to 206 |
| CCc1ocnc1C(=O)O | 104 to 106 |
| N#CCC(=O)Cc1ccc(Cl)cc1 | 85 to 87 |
| Oc1ccc2oc3c(c2c1)CCCC3 | 103 to 105 |
| ClCc1coc(-c2ccc(Br)cc2)n1 | 112 to 114 |
| Oc1cc(C2CC2)ncn1 | 188 to 190 |
| O=c1[nH]c2ccc(S(=O)(=O)Cl)cc2o1 | 151 to 155 |
| Cc1[nH]c2ccccc2c1-c1csc(N)n1 | 168 to 170 |
| Nc1[nH]nc(CCC2CCCCC2)c1-c1ccc(Br)cc1 | 168 to 170 |
| O=C(O)CCNc1ccccn1 | 169 to 171 |
| COc1cc(F)cc(C(=O)O)c1N | 211 to 213 |
| COc1ccccc1NC(=O)Cc1noc(CCl)n1 | 95 to 97 |
| CCOCCOc1ccc(Br)cc1C=O | 28 to 30 |
| O=C1CC(C(=O)O)CCN1 (centres undefined) | 164 to 166 |
| CC(Cc1ccc(Cl)cc1)NC(=O)OC(C)(C)C (centres undefined) | 93 to 95 |
| Cc1nn2c(=O)cc(CCl)nc2s1 | 210 to 212 |
| CS(=O)(=O)Cc1ccc(Cl)cc1S(=O)(=O)Cl | 103 to 105 |
| CCOC(=O)c1c(N)oc(C)c1C(C)=O | 135 to 137 |

| SMILES | melting point [°C] |
| --- | --- |
| CC(C)C(Br)C(=O)N1CCc2ccccc2C1 (centres undefined) | 90 to 92 |
| N#Cc1ccc(-c2nc3ccccc3[nH]2)cc1 | 326 to 328 |
| Sc1nnc(C2CC2)s1 | 108 to 110 |
| Cc1n[nH]c(O)c1C#N | 229 to 231 |
| NS(=O)(=O)c1cc(Br)ccc1Br | 199 to 201 |
| N#Cc1ccc(S)c(Cl)c1 | 81 to 83 |
| O=C(O)/C=C/c1ccc(OCc2ccccn2)cc1 | 210 to 212 |
| CS(=O)(=O)Cc1cccc(C(=O)O)c1 | 188 to 190 |
| Nc1cc(-c2cccs2)ncn1 | 222 to 224 |
| COc1ccc2[nH]cc(C3=CCNCC3)c2c1 | 181 to 183 |
| Cc1ccc(S(=O)(=O)N2CC(Cc3cccc(F)c3)C2)cc1 | 57 to 59 |
| CN(C)c1ccc(NCc2ccc3ccccc3n2)cc1 | 104 to 106 |
| COc1ccccc1CNc1nc(-c2ccc(C)cc2)cs1 | 96 to 98 |
| CC(CC(=O)O)S(=O)(=O)c1ccc(F)cc1 (centres undefined) | 126 to 128 |
| O=C(O)CCn1ncc(=O)c2ccccc21 | 130 to 132 |
| CC1CCc2c(sc3nc(CCl)[nH]c(=O)c23)C1 (centres undefined) | 180 to 182 |
| NNc1ncnc2sc(-c3ccccc3)cc12 | 263 to 265 |
| O=S(=O)(Cl)Cc1cc(-c2ccccc2)no1 | 115 to 117 |
| Cc1cc(S(=O)(=O)Cl)cnc1Cl | 54 to 56 |
| Cc1c(C(=O)O)cc(F)cc1S(=O)(=O)Cl | 121 to 123 |
| CN1CCN(C(=O)c2ccc(C#N)cn2)CC1 | 83 to 85 |
| O=C(O)CC(n1cnc2sccc2c1=O)C(F)(F)F (centres undefined) | 188 to 190 |
| Cc1ccc(NC(N)=S)cc1F | 148 to 150 |
| N#Cc1ccnc(-n2cccn2)c1 | 96 to 98 |

| SMILES | melting point [°C] |
| --- | --- |
| Cc1[nH]oc(=N)c1Br | 67 to 69 |
| COc1ccc(C(=O)Oc2ccc(C=O)cc2OC)cc1 | 95 to 98 |
| CC1(C)CNc2ccccc2S1 | 41 to 43 |
| CC(C)NS(=O)(=O)c1cccc(CN)c1 | 98 to 100 |
| NC1CCC(=O)NC1=O (centres undefined) | 214 to 216 |
| COc1ccc(CCC(=O)Nc2ccccc2C(=O)O)cc1 | 159 to 161 |
| CC(Oc1ccc(Cl)cc1)C(=O)O (centres undefined) | 111 to 113 |
| O=C(O)c1ccc(OCc2ccccn2)cc1 | 209 to 211 |
| Nc1cccc(-n2cnnc2)c1 | 199 to 201 |
| N#Cc1cccc(Oc2ccc(N)cn2)c1 | 104 to 106 |
| NCC(O)COc1ccc(C(F)(F)F)cc1 (centres undefined) | 98 to 100 |
| Cc1ccc(NC(=O)CCl)c(Br)c1 | 169 to 171 |
| Cn1c(C(C)(C)C)nc2cc(N)ccc21 | 164 to 166 |
| CC1=NS(=O)(=O)NC(C)=C1CCC(=O)O | 162 to 164 |
| O=C(O)c1ccc(S(=O)(=O)N2CCCCC2)cc1 | 270 to 272 |
| Nc1ncn(Cc2ccccn2)n1 | 113 to 115 |
| O=C1CN(C(=O)CCl)c2ccccc2N1 | 114 to 119 |
| C#CCNC(C)=O | 79 to 81 |
| O=C(O)c1sccc1S(=O)(=O)NCc1cccs1 | 138 to 140 |
| O=S(=O)(Cl)c1cccc(-c2nnco2)c1 | 87 to 89 |
| O=C(O)c1cc(Cl)nc(Oc2ccc(Br)cc2)c1 | 213 to 215 |
| Cc1cccc(N2C(=O)NC(CCC(=O)O)C2=O)c1 (centres undefined) | 158 to 160 |
| Cc1ccc(OC(C)C(=O)O)cc1 (centres undefined) | 101 to 103 |
| Clc1ccc(OCCCBr)cc1 | 29 to 34 |

| SMILES | melting point [°C] |
| --- | --- |
| CCCNC(=O)CN(C)C(=O)CCl | 212 to 217 |
| CCOC(=O)/C(C#N)=C/Nc1ccccc1OCC | 141 to 143 |
| COc1ccc(C(=O)c2ccc(Cl)cc2)cc1C | 121 to 123 |
| N#CC(C(=O)c1ccccc1)c1ccccc1 (centres undefined) | 97 to 99 |
| NC(=O)N1CCCC1C(=O)O (centres undefined) | 205 to 207 |
| O=C1CCc2cc3c(cc21)OCCO3 | 118 to 120 |
| CC1(C)Cc2ccc(Cl)cc2C1O (centres undefined) | 94 to 96 |
| Clc1ccnc2[nH]ccc12 | 176 to 181 |
| CCCS(=O)(=O)N1CCCC(C(=O)O)C1 (centres undefined) | 122 to 124 |
| Nc1ccc(S(=O)(=O)Nc2ccccc2)cc1 | 176 to 178 |
| N#Cc1ccc(OCC2CC2)nc1 | 53 to 55 |
| OC1CCc2c(OCc3ccccc3)cccc21 (centres undefined) | 86 to 88 |
| Cc1cccc2c1C(=O)NCCN2 | 182 to 184 |
| NC(=O)c1ncn2c(C(=O)O)cc(-c3ccccc3)nc12 | 254 to 256 |
| CN(C)S(=O)(=O)c1cncc(C=CC(=O)O)c1 | 242 to 244 |
| O=C(O)CNC(=O)c1c[nH]c(=O)[nH]c1=O | 301 to 303 |
| Cc1nn(Cc2cccc(Cl)c2)cc1C(=O)O | 167 to 169 |
| COc1cc(OC)cc(N2CC(C(=O)O)CC2=O)c1 (centres undefined) | 125 to 127 |
| O=S(=O)(Cl)c1c(Cl)ccc2ccccc12 | 65 to 67 |
| NC(=O)C1CCN(c2ccc(N)cc2)CC1 | 205 to 207 |
| Nc1nc(CO)n[nH]1 | 193 to 195 |
| COC(=O)c1ccc(OCC#N)cc1 | 95 to 97 |
| CCNc1ccc(S(=O)(=O)C(F)F)cc1N | 115 to 117 |
| NCC(O)c1cccs1 (centres undefined) | 81 to 83 |

| SMILES | melting point [°C] |
| --- | --- |
| CC(c1ccccc1)n1c(S)nnc1-c1ccccc1 (centres undefined) | 201 to 203 |
| Clc1ccc2nnc(C3CC3)n2n1 | 117 to 119 |
| CC1CCC(NC2CCC(O)CC2)CC1 (centres undefined) | 143 to 145 |
| O=C(O)c1cnc(Cl)cc1Cl | 158 to 160 |
| O=C(O)c1cccc(S(=O)(=O)NCc2ccccc2)c1 | 225 to 227 |
| Cc1cc(S)n2c(nc3ccccc32)c1C#N | 198 to 200 |
| COc1ccc(CN)cc1NC(C)=O | 115 to 117 |
| COc1ccc(NC(=O)C(C)Cl)cc1OC (centres undefined) | 109 to 111 |
| CNS(=O)(=O)c1csc(C(=O)O)c1 | 170 to 172 |
| CCc1c(C(C)(C)C)noc1N | 75 to 77 |
| COc1ccc2c(c1)NC(=O)C(C)O2 (centres undefined) | 138 to 140 |
| CNS(=O)(=O)c1c[nH]c(=O)[nH]c1=O | 279 to 281 |
| O=S1(=O)CC(O)C(NCc2ccco2)C1 (centres undefined) | 139 to 141 |
| CCn1c(S)nc2ccsc2c1=O | 286 to 288 |
| O=C(O)C1CCN(S(=O)(=O)c2ccc3ccccc3c2)CC1 | 180 to 182 |
| CCC(=O)c1ccc(C(=O)OC)cc1 | 82 to 84 |
| O=C(O)c1coc(-c2ccccc2Cl)n1 | 179 to 181 |
| O=C1CCN(c2ccc([N+](=O)[O-])cc2)CC1 | 162 to 164 |
| O=C(O)c1nn(-c2ccc(F)cc2F)cc1O | 203 to 205 |
| CS(=O)(=O)Nc1cccc(C#N)c1 | 154 to 156 |
| CS(=O)(=O)c1ccc(C(=O)Nc2c(Cl)cc(N)cc2Cl)cc1 | 238 to 240 |
| CN(CC(=O)O)c1ccc(C(F)(F)F)cc1C=O | 106 to 108 |
| Cc1nsc(N)c1C(=O)O | 158 to 160 |
| O=C(O)C(=Cc1ccc(Br)cc1)c1cccs1 | 199 to 200 |

| SMILES | melting point [°C] |
| --- | --- |
| Cc1csc(NCCc2ccccc2)n1 | 80 to 82 |
| Nc1ccccc1NCCCn1ccnc1 | 160 to 162 |
| CCOC(=O)C(=O)c1nccn1Cc1ccccc1 | 57 to 59 |
| O=[N+]([O-])c1ccc2c(S(=O)(=O)Cl)c[nH]c2c1 | 173 to 175 |
| Nc1nnc(-c2cccc(Cl)c2)[nH]1 | 219 to 221 |
| O=C1OCc2c1cccc2S(=O)(=O)Cl | 124 to 126 |
| N#Cc1cc(C(=O)O)c[nH]1 | 229 to 231 |
| CCOC(=O)c1cnc2c(C)cc(C)cc2c1Cl | 72 to 74 |
| CC(C)(C)c1ccc(Oc2ccc(C=O)cc2[N+](=O)[O-])cc1 | 156 to 158 |
| Cc1nnc2cc(Cl)ncn12 | 122 to 124 |
| O=c1[nH]nc2cncc(Cl)n12 | 169 to 171 |
| Cc1noc(S)n1 | 123 to 125 |
| O=C(Nc1ccccn1)C1CCNCC1 | 113 to 115 |
| Nc1nnc(Cc2cccc3ccccc23)o1 | 224 to 226 |
| COc1cc(-n2cnnn2)c(Cl)cc1C(=O)O | 331 to 333 |
| NN=c1ncc(F)c[nH]1 | 119 to 121 |
| O=C(O)CCc1ncc(-c2ccco2)o1 | 140 to 142 |
| NS(=O)(=O)c1nc2ccccc2s1 | 177 to 179 |
| O=C(O)c1c2c(nc3ccccc13)C(=Cc1cccs1)CCC2 | 176 to 178 |
| O=S(=O)(Cl)c1c(Cl)nc2ccccn12 | 101 to 103 |
| CCc1c(C)sc(N)c1C#N | 103 to 105 |
| O=C(CCl)N1CC=C(c2ccccc2)CC1 | 86 to 88 |
| N#CCC(=O)CCc1ccccc1 | 69 to 71 |
| Cc1csc(NC(=O)Cc2ccc(N)cc2)n1 | 143 to 145 |
